Legend:
[1] = test system: multiple sclerosis patients; assay: case treatments of multiple sclerosis (Examples 2-5); format: in vivo, human
Protocol: A person was diagnosed as having MS after presenting with weakness, loss of balance, double vision, and paraesthesia in their right arm. They were treated with prednisone and later with physiotherapy. […] Tone was increased in both lower limbs and they had bilateral ankle clonus. Deep tendon reflexes were 2+ in the arms, 3+ in both knees and ankles and the planter responses were extensor.
They were started on 10 milligram subcutaneous injections of Peptide T daily. […] Their frequency of nocturia was reduced, fine motor control improved, stuttering decreased, their legs were less spastic and they could stand with minimal support.
A person was diagnosed with optic neuritis secondary to multiple sclerosis after presenting with numbness, impaired motor function, and blurred vision (20/300 bilaterally). Their somatic neurological examination was within normal limits. Minor episodes of numbness and impaired speech, balance and co-ordination had occurred over 6 months, as well as headache and loss of vision.
Peptide T therapy was started.
A person with their first multiple sclerosis episode had optic neuritis and complete blindness in the right eye for 2 weeks, numbness in their right leg and then both legs. Their symptoms worsened. […] They had worsening of their ataxia and blurred vision. They were given prednisone 80 milligrams per day. […] The patient complained of oscillopsia. […] Findings were typical of demyelination consistent with MS. […] The tone was increased in their lower limbs and they had non-sustained ankle clonus bilaterally. Their knee jerk was increased on the right compared to the left. Plantar responses were both upgoing. They had decreased position, vibration, light touch and cold sensation in the feet compared to the hands.
About 2 months later the patient was started on Peptide T 10 milligrams subcutaneously daily. […] They experienced improved feelings in their fingers, fine movements of their hands and improved cognitive function.
A person with a history of dizziness, ataxia, episodes of vertigo, impairment of motor function and generalized weakness of the legs was treated with dilantin and admitted to hospital. […] They were reassessed about 2 years later for episodes of dizziness, and complaints of leg spasms. […] Planter response was downgoing and they had upwards gaze vertical nystagmus as previously noted.

[2] = in vivo; cited from earlier work
protein kinase C = conditions: cited from earlier work
[3] = test system: mouse fetal hippocampal neurons; conditions: mouse hippocampal neuronal culture; cited from earlier work
rat spinal cord = conditions: spinal administration; cited from earlier work

NCC(CC(=O)O)c1ccc(Cl)cc1 (centres unmarked) [Lioresal (Baclofen), Baclofen]
response to earlier treatment ([1]; Example 2, before Peptide T): some improvement

C[C@@H](N)C(=O)N[C@@H](CO)C(=O)N[C@H](C(=O)N[C@H](C(=O)N[C@H](C(=O)N[C@@H](CC(N)=O)C(=O)N[C@@H](Cc1ccc(O)cc1)C(=O)N[C@H](C(N)=O)[C@@H](C)O)[C@@H](C)O)[C@@H](C)O)[C@@H](C)O [Peptide T, D-Ala-Ser-Thr-Thr-Thr-Asn-Tyr-Thr- Amide]
exit from the brain [2]: diffusion only

C[C@]12C=CC(=O)C=C1CC[C@@H]1[C@@H]2C(=O)C[C@@]2(C)[C@H]1CC[C@]2(O)C(=O)CO [prednisone]
symptomatic response ([1]; Example 4, 150 mg daily, while off Peptide T): minimal symptomatic improvement | ataxia and some visual problems ([1]; Example 4, 80 milligrams per day): seemed to improve | response to treatment ([1]; Example 4, first course, dose not stated): some improvement

vasoactive intestinal peptide [VIP]
cellular effects via protein kinase C (protein kinase C): regulation of protein kinase C | effect on gp120-induced neurotoxicity [3]: completely eliminated | analgesia, fail-flick latency test and tail-shock induced vocalization test (rat spinal cord): produced analgesia

From US5686417A, “Peptide T and related peptides in the treatment of HTLV-1 myelopathy and multiple sclerosis” (Reed MacFadden, Ltd., priority 1995, dated 1997)
